According to ChEMBL document CHEMBL3885861, “Open TG-GATES”:

Species: Rattus norvegicus
Assay: Open TG-GATES - Regimen: Single
Assay type: toxicity, organism-based, Sprague-Dawley
Parameters: regimen Single, gender Male, age 6 weeks
Conditions: in vivo, po, 20 mg/kg, route gavage, dose level Middle; for Eos / Fbg / Hb / Ht / Lym / MCH / MCHC / MCV / Mono / Neu / PT / Plat / RBC / WBC / APTT / Bas: tissue Blood; for KIDNEY_L / KIDNEY_R / KIDNEY_TOTAL: tissue Kidney; for LIVER: tissue Liver; for ALT / AST / BUN / CRE / Cl / DBIL / GLC / IP / LDH / Na / RALB / TBIL / TC / TG / TP / gamma-GTP: tissue Plasma

SMILES: CC/C(=C(\c1ccccc1)c1ccc(OCCN(C)C)cc1)c1ccccc1 [TAMOXIFEN]
- Eos (3 h): 1%
- Fbg (3 h): 267 mg/dL
- Hb (3 h): 13 g/dL
- Ht (3 h): 39.3%
- Lym (3 h): 78%
- MCH (3 h): 21 pg
- MCHC (3 h): 33%
- MCV (3 h): 63.8 fL
- Mono (3 h): 4.2%
- Neu (3 h): 16.6%
- PT (3 h): 12.1 s
- Plat (3 h): 116.7 x10_4/uL
- RBC (3 h): 616 x10_4/ul
- WBC (3 h): 103.9 x10_2/uL
- KIDNEY_L (3 h): 0.8 g
- KIDNEY_R (3 h): 0.8 g
- KIDNEY_TOTAL (3 h): 1.6 g
- LIVER (3 h): 8.4 g
- ALT (3 h): 51 IU/L
- AST (3 h): 81.2 IU/L
- BUN (3 h): 10.4 mg/dL
- CRE (3 h): 0.2 mg/dL
- Cl (3 h): 106.6 meq/L
- DBIL (3 h): 0.016 mg/dL
- GLC (3 h): 178.8 mg/dL
- IP (3 h): 9.8 mg/dL
- LDH (3 h): 56 IU/L
- Na (3 h): 140 meq/L
- RALB (3 h): 2.6 g/dL
- TBIL (3 h): 0.052 mg/dL
- TC (3 h): 91.8 mg/dL
- TG (3 h): 86 mg/dL
- TP (3 h): 5.5 g/dL
- gamma-GTP (3 h): 1.2 IU/L
- TERMINAL_BW (6 h): 192.3 g
- APTT (6 h): 18.2 s
- Bas (6 h): 0%
- Eos (6 h): 1.2%
- Fbg (6 h): 269.4 mg/dL
- Hb (6 h): 13.2 g/dL
- Ht (6 h): 39.4%
- Lym (6 h): 73.8%
- MCH (6 h): 21.3 pg
- MCHC (6 h): 33.5%
- MCV (6 h): 63.7 fL
- Mono (6 h): 4.2%
- Neu (6 h): 20.4%
- PT (6 h): 12.1 s
- Plat (6 h): 107 x10_4/uL
- RBC (6 h): 618.2 x10_4/ul
- WBC (6 h): 64.9 x10_2/uL
- KIDNEY_L (6 h): 0.8 g
- KIDNEY_R (6 h): 0.8 g
- KIDNEY_TOTAL (6 h): 1.6 g
- LIVER (6 h): 7.7 g
- ALT (6 h): 43.4 IU/L
- AST (6 h): 82.8 IU/L
- BUN (6 h): 8 mg/dL
- CRE (6 h): 0.2 mg/dL
- Cl (6 h): 109 meq/L
- DBIL (6 h): 0.008 mg/dL
- GLC (6 h): 175.8 mg/dL
- IP (6 h): 10.7 mg/dL
- LDH (6 h): 92.4 IU/L
- Na (6 h): 141.8 meq/L
- RALB (6 h): 2.6 g/dL
- TBIL (6 h): 0.048 mg/dL
- TC (6 h): 82.2 mg/dL
- TG (6 h): 45.4 mg/dL
- TP (6 h): 5.4 g/dL
- gamma-GTP (6 h): 1.4 IU/L
- TERMINAL_BW (9 h): 194.8 g
- APTT (9 h): 16.1 s
- Bas (9 h): 0%
- Eos (9 h): 1%
- Fbg (9 h): 252.6 mg/dL
- Hb (9 h): 12.7 g/dL
- Ht (9 h): 38%
- Lym (9 h): 74.4%
- MCH (9 h): 21.6 pg
- MCHC (9 h): 33.3%
- MCV (9 h): 64.9 fL
- Mono (9 h): 2.8%
- Neu (9 h): 21.6%
- PT (9 h): 12.4 s
- Plat (9 h): 114.1 x10_4/uL
- RBC (9 h): 585.4 x10_4/ul
- WBC (9 h): 73.4 x10_2/uL
- KIDNEY_L (9 h): 0.8 g
- KIDNEY_R (9 h): 0.8 g
- KIDNEY_TOTAL (9 h): 1.7 g
- LIVER (9 h): 7.1 g
- ALT (9 h): 40 IU/L
- AST (9 h): 75.8 IU/L
- BUN (9 h): 8.6 mg/dL
- CRE (9 h): 0.2 mg/dL
- Cl (9 h): 107.6 meq/L
- DBIL (9 h): 0.008 mg/dL
- GLC (9 h): 178.8 mg/dL
- IP (9 h): 11 mg/dL
- LDH (9 h): 46 IU/L
- Na (9 h): 141.4 meq/L
- RALB (9 h): 2.4 g/dL
- TBIL (9 h): 0.042 mg/dL
- TC (9 h): 61.8 mg/dL
- TG (9 h): 35.4 mg/dL
- TP (9 h): 5.1 g/dL
- gamma-GTP (9 h): 1 IU/L
- TERMINAL_BW (24 h): 194.8 g
- APTT (24 h): 16.8 s
- Bas (24 h): 0%
- Eos (24 h): 1.2%
- Fbg (24 h): 232.8 mg/dL
- Hb (24 h): 12.7 g/dL
- Ht (24 h): 38.5%
- Lym (24 h): 79%
- MCH (24 h): 21.3 pg
- MCHC (24 h): 33%
- MCV (24 h): 64.5 fL
- Mono (24 h): 2.4%
- Neu (24 h): 17.2%
- PT (24 h): 12.8 s
- Plat (24 h): 117 x10_4/uL
- RBC (24 h): 597.6 x10_4/ul
- WBC (24 h): 83.2 x10_2/uL
- KIDNEY_L (24 h): 0.9 g
- KIDNEY_R (24 h): 0.9 g
- KIDNEY_TOTAL (24 h): 1.8 g
- LIVER (24 h): 8.7 g
- ALT (24 h): 52.2 IU/L
- AST (24 h): 79.2 IU/L
- BUN (24 h): 13 mg/dL
- CRE (24 h): 0.2 mg/dL
- Cl (24 h): 109.6 meq/L
- DBIL (24 h): 0.016 mg/dL
- GLC (24 h): 186 mg/dL
- IP (24 h): 8.3 mg/dL
- LDH (24 h): 64 IU/L
- Na (24 h): 143.2 meq/L
- RALB (24 h): 2.6 g/dL
- TBIL (24 h): 0.038 mg/dL
- TC (24 h): 60.2 mg/dL
- TG (24 h): 84.6 mg/dL
- TP (24 h): 5.4 g/dL
- gamma-GTP (24 h): 1.4 IU/L
